Assay results published in patent publication US20250032525A1 (priority 2021, published 2025).
Where two headings read alike, the source gives them in different places.

Tests used:
HL-60(TB) = settings: NCI-60 database, sulforhodamine B, read-out: Cytotoxic IC50; cited from earlier work
HCT-15 = assay: In vitro cytotoxicity (PrestoBlue); assay type: cell-based, human; settings: HCT-15, 72 h, read-out: Cytotoxic IC50
From the text: (§1) Experiments were repeated at least 3 times.

HT29 = assay: In vitro cytotoxicity (PrestoBlue); assay type: cell-based, human; settings: HT29, 72 h, read-out: Cytotoxic IC50
From the text: as §1

[1] = test system: MCF-7 human breast adenocarcinoma cells; settings: reported by Mező; cited from earlier work

| SMILES | IC50 (HL-60(TB)) [nM] | IC50 (HCT-15) [nM] | IC50 (HCT-15; Homo sapiens) [nM] | IC50 (HT29) [nM] | IC50 (HT29; Homo sapiens, HT-29, 72 h) [nM] | IC50 [1] [nM] |
| --- | --- | --- | --- | --- | --- | --- |
| COc1cccc2c1C(=O)c1c(O)c3c(c(O)c1C2=O)C[C@@](O)(C(=O)CO)C[C@@H]3O[C@H]1C[C@H](N)[C@H](O)[C@H](C)O1 [DOX, doxorubicin] | 62.4 |  |  |  |  |  |
| COc1cccc2c1C(=O)c1c(O)c3c(c(O)c1C2=O)C[C@@](O)(C(C)=O)C[C@@H]3O[C@H]1C[C@H]2[C@H](OC3CCCN32)[C@H](C)O1 (stereo partly drawn) [PyDau, 2-deamino-2-pyrrolino-daunorubicin] |  | 2.42 | 2.86 | 3.53 | 3.05 | 0.2 |
